Reference: BindingDB's records for doi:10.1016/j.ejmech.2020.112223 (2020)

Experiment: Inhibition of Influenza A virus (A/PR 8/34 (H1N1)) hemagglutinin transfected in human HeLa cells assessed as reduction in low pH-indued polykaryon formation preincubated for 15 mins followed by pH 5.2 buffer addition and measured after 5 mins by giemsa staining based microscopic analysis

`COC(=O)C[C@H](NC(=O)OC(C)(C)C)C(=O)N(Cc1ccc(F)cc1)C1(C(=O)NCc2ccccc2)CCN(Cc2ccccc2)CC1` showed an IC50 of 12 µM.
